Test results from publication PMC10764104, “Discovery of Molecular Glue Degraders via Isogenic Morphological Profiling” (ACS Chemical Biology, 2023).

Target: T1, recombinant DDB1-CRBN (Homo sapiens, UniProt Q96SW2)
T1 construct: His; made in house; host or cells: High Five insect cells (baculovirus made and propagated in SF9 cells)
Experiment: Fluorescence polarization-based competition assay for CRBN binding
Conditions: 200 nM CRBN-DDB1, 20 nM pomalidomide-fluorescein tracer 16, triplicates; read-out: FP_CRBN_binding: CRBN binding affinity, EC50
Procedure: Prior to screening the compound library in the isogenic CPA, we assessed their CRBN binding affinities using a fluorescence-polarization-based competition assay with recombinant DDB1-CRBN and the fluorescent tracer 16 (Figure S2). […] We also assessed the cytotoxicity of the CRBN binders in RKO wild-type (WT) cells to determine the appropriate treatment concentration. […]
Fluorescence Polarization‐based competition assay
Fluorescence Polarization assays were performed in 384‐well, Low Volume, Black, Round Bottom, Polystyrene Nonbinding surface Microplates (Corning, #4514). The test compounds were incubated with 200 nM CRBN‐DDB1 and 20 nM Pomalidomide‐fluorescein tracer 16 in 50 mM Tris‐HCl pH 7.5, 200 mM NaCl, 1 mM DTT, 0.02% Triton X‐ 100, and 0.1 µg/µL Bovine Serum Albumin (Sigma Aldrich, #A7030) in a total volume of 25 µL. Fluorescence polarization values were determined with a PerkinElmer Envision reader with FITC FP dual mirror and FITC FP 480 excitation filter and FITC FP 535 emission filters. Fluorescence polarization values of a 10x serial dilution (10 nM to 100 µM) of the test compounds were determined in triplicates. EC50 values were calculated with GraphPad Prism software (version 10.0.2) with a non‐linear fit function (4PL sigmoidal curve fit) adjusting the bottom constrain to the FP value of free tracer. […]

Row | SMILES | EC50 [nM]
1 | CC(C)(O)C1CCN(S(=O)(=O)Oc2cccc(Nc3ccc4c(c3)C(=O)N(C3CCC(=O)NC3=O)C4=O)c2)C1 (stereo not drawn) [FL1-4] | 481
2 | O=C1CCC(c2cccc(OS(=O)(=O)N3CCC(c4ccco4)C3)c2)C(=O)N1 (stereo not drawn) [FL6-12] | 570
3 | CN(C)c1ncc(CN(C)S(=O)(=O)Oc2cccc(C3CCC(=O)NC3=O)c2)cn1 (stereo not drawn) [FL6-18] | 794
4 | O=C1CCC(N2C(=O)c3ccc(Nc4cccc(OS(=O)(=O)N5CCOCC5)c4)cc3C2=O)C(=O)N1 (stereo not drawn) [FL1-5] | 301
5 | C[C@@H]1C[C@H](C)CN(S(=O)(=O)Oc2ccc(C3CCC(=O)NC3=O)cc2)C1 (stereo partly drawn) [FL5-6] | 4690
6 | CC1(C)CN(S(=O)(=O)Oc2ccc(C3CCC(=O)NC3=O)cc2)CC2(CCOC2)O1 (stereo not drawn) [FL5-8] | 1340
7 | Cc1cn2c(n1)CN(S(=O)(=O)Oc1cccc(Nc3ccc4c(c3)C(=O)N(C3CCC(=O)NC3=O)C4=O)c1)CC2 (stereo not drawn) [FL1-13] | 482
8 | O=C1CCC(c2ccc(OS(=O)(=O)N3CCC(c4ccncc4)CC3)cc2)C(=O)N1 (stereo not drawn) [FL5-16] | 4220
9 | Cc1cn2c(n1)CN(S(=O)(=O)Oc1ccc(C3CCC(=O)NC3=O)cc1)CC2 (stereo not drawn) [FL5-13] | 771
10 | CC1(C)CN(S(=O)(=O)Oc2cccc(Nc3ccc4c(c3)C(=O)N(C3CCC(=O)NC3=O)C4=O)c2)CC2(CCOC2)O1 (stereo not drawn) [FL1-8] | 930
11 | C[C@@H](O)CN(C)S(=O)(=O)Oc1cccc(C2CCC(=O)NC2=O)c1 (stereo partly drawn) [FL6-1] | 584
12 | O=C1CCC(c2cccc(OS(=O)(=O)N3CC(CCO)C3)c2)C(=O)N1 (stereo not drawn) [FL6-2] | 1250
13 | O=C1CCC(N2C(=O)c3cccc(Nc4ccc(OS(=O)(=O)N5CCC(c6ccncc6)CC5)cc4)c3C2=O)C(=O)N1 (stereo not drawn) [FL4-16] | 971
14 | O=C1CCC(c2ccc(OS(=O)(=O)N3CCOCC3)cc2)C(=O)N1 (stereo not drawn) [FL5-5] | 829
15 | CC1c2cc(F)ccc2CCN1S(=O)(=O)Oc1ccc(Nc2ccc3c(c2)C(=O)N(C2CCC(=O)NC2=O)C3=O)cc1 (stereo not drawn) [FL2-17] | 1290
16 | CC(C)(O)C1CCN(S(=O)(=O)Oc2ccc(Nc3ccc4c(c3)C(=O)N(C3CCC(=O)NC3=O)C4=O)cc2)C1 (stereo not drawn) [FL2-4] | 770
17 | CC1(C)CN(S(=O)(=O)Oc2ccc(Nc3ccc4c(c3)C(=O)N(C3CCC(=O)NC3=O)C4=O)cc2)CC2(CCOC2)O1 (stereo not drawn) [FL2-8] | 2590
18 | CN(Cc1ncc(C2CC2)o1)S(=O)(=O)Oc1ccc(C2CCC(=O)NC2=O)cc1 (stereo not drawn) [FL5-14] | 600
19 | CC1(C)CN(S(=O)(=O)Oc2cccc(C3CCC(=O)NC3=O)c2)CCS1(=O)=O (stereo not drawn) [FL6-7] | 743
20 | C[C@@H](O)CN(C)S(=O)(=O)Oc1ccc(Nc2ccc3c(c2)C(=O)N(C2CCC(=O)NC2=O)C3=O)cc1 (stereo partly drawn) [FL2-1] | 445

Continued, values first:

Row | EC50 [nM] | SMILES
21 | 509 | CN(Cc1ncnn1C)S(=O)(=O)Oc1cccc(Nc2ccc3c(c2)C(=O)N(C2CCC(=O)NC2=O)C3=O)c1 (stereo not drawn) [FL1-11]
22 | 617 | CN(Cc1ncnn1C)S(=O)(=O)Oc1ccc(Nc2ccc3c(c2)C(=O)N(C2CCC(=O)NC2=O)C3=O)cc1 (stereo not drawn) [FL2-11]
23 | 1570 | CN(Cc1ccc2c(c1)OCO2)S(=O)(=O)Oc1cccc(Nc2cccc3c2C(=O)N(C2CCC(=O)NC2=O)C3=O)c1 (stereo not drawn) [FL3-20]
24 | 557 | O=C1CCC(N2C(=O)c3cccc(Nc4ccc(OS(=O)(=O)N5CC(CCO)C5)cc4)c3C2=O)C(=O)N1 (stereo not drawn) [FL4-2]
25 | 321 | C[C@@H](O)CN(C)S(=O)(=O)Oc1cccc(Nc2ccc3c(c2)C(=O)N(C2CCC(=O)NC2=O)C3=O)c1 (stereo partly drawn) [FL1-1]
26 | 1310 | CC1c2cc(F)ccc2CCN1S(=O)(=O)Oc1cccc(Nc2cccc3c2C(=O)N(C2CCC(=O)NC2=O)C3=O)c1 (stereo not drawn) [FL3-17]
27 | 330 | O=C1CCC(N2C(=O)c3cccc(Nc4cccc(OS(=O)(=O)N5CC6(CNC(=O)N6)C5)c4)c3C2=O)C(=O)N1 (stereo not drawn) [FL3-9]
28 | 3650 | C[C@@H]1C[C@H](C)CN(S(=O)(=O)Oc2ccc(Nc3cccc4c3C(=O)N(C3CCC(=O)NC3=O)C4=O)cc2)C1 (stereo partly drawn) [FL4-6]
29 | 348 | CC1(C)CN(S(=O)(=O)Oc2cccc(Nc3cccc4c3C(=O)N(C3CCC(=O)NC3=O)C4=O)c2)CCS1(=O)=O (stereo not drawn) [FL3-7]
30 | 1470 | CN(Cc1ccc2c(c1)OCO2)S(=O)(=O)Oc1cccc(Nc2ccc3c(c2)C(=O)N(C2CCC(=O)NC2=O)C3=O)c1 (stereo not drawn) [FL1-20]
